Data: US20080139558A1, “QUINOLONES USEFUL AS INDUCIBLE NITRIC OXIDE SYNTHASE INHIBITORS” (KALYPSYS, INC., priority 2006, published 2008)

Each compound was assayed against T1, human iNOS (Homo sapiens, UniProt P35228) (assay: DAN assay of nitric oxide production (hiNOS)). Conditions: enzyme expressed in HEK293 cells transiently transfected with human iNOS.
T1 construct: expressed in transfected cells; host or cells: HEK293
T1 sequence (P35228 whole entry): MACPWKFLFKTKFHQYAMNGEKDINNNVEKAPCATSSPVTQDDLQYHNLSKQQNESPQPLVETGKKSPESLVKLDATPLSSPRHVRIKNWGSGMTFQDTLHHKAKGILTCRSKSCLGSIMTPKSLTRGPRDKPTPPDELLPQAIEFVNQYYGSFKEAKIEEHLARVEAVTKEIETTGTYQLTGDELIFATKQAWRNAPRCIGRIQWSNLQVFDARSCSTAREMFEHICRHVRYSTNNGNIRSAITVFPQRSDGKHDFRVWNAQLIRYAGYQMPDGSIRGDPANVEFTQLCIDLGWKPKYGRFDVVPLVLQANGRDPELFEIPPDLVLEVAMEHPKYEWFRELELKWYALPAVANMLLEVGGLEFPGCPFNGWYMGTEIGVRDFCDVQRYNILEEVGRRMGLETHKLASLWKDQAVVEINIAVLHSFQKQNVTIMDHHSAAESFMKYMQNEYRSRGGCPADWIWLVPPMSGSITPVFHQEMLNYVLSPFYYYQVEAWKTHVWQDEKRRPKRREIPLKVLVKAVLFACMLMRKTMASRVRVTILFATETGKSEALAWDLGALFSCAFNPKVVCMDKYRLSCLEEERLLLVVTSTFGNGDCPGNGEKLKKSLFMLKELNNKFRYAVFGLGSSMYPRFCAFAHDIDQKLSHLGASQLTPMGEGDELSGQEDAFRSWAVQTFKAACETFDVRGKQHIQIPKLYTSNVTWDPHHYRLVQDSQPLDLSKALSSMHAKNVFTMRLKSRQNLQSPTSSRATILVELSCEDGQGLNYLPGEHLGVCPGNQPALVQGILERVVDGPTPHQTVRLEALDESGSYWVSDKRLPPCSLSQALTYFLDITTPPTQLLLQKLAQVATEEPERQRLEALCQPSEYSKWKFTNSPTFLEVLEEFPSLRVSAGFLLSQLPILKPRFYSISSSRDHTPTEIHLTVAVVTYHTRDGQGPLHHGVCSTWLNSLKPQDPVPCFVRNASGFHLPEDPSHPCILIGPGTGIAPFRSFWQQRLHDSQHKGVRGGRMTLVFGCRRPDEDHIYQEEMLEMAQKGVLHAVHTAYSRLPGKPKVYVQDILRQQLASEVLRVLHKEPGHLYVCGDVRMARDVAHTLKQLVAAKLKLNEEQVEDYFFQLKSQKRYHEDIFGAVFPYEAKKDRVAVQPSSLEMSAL
Assay type: cell-based
Method in brief: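 Human iNOS transiently expressed in HEK293 cells; NO production quantified as nitrite via 2,3-diaminonaphthalene reaction forming fluorescent naphthotriazole.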
With `Cc1ccncc1C(=O)N(Cc1c(F)c(=O)[nH]c2c(F)cccc12)c1cccc(Cl)c1` [Example 114, N-(3-Chlorophenyl)-N-((3,8-difluoro-2-oxo-1,2-dihydroquinolin-4-yl)methyl)-4-methylnicotinamide] the EC50 was ≤ 5 µM. `Cc1ccc2[nH]c(=O)cc(CN(C(=O)c3ccco3)c3ccccc3)c2c1` [Example 21, N-((6-Methyl-2-oxo-1,2-dihydroquinolin-4-yl)methyl)-N-phenylfuran-2-carboxamide] was tested, and the EC50 was ≤ 5 µM. `Cn1nnc(C(=O)N(Cc2cc(=O)[nH]c3c(F)c(F)ccc23)c2cccc(Cl)c2)n1` [Example 169] was tested, and the EC50 was ≤ 5 µM. With `O=C(c1ccoc1)N(Cc1cc(=O)[nH]c2ccccc12)c1ccccc1` [Example 26, N-((2-Oxo-1,2-dihydroquinolin-4-yl)methyl)-N-phenylfuran-3-carboxamide] the EC50 was > 5 µM. For `O=C(c1ccco1)N(Cc1cc(=O)[nH]c2ccccc12)c1ccncc1` [Example 13, N-[(2-Oxo-1,2-dihydroquinolin-4-yl)methyl]-N-pyridin-4-yl-2-furamide], the EC50 was ≤ 5 µM. `CC(=O)N(Cc1cc(=O)[nH]c2ccccc12)c1ccccc1` [Example 3, N-[(2-Oxo-1,2-dihydroquinolin-4-yl)methyl]-N-phenylacetamide] was tested, and the EC50 was > 5 µM. For `Cc1ncsc1C(=O)N(Cc1cc(=O)[nH]c2ccccc12)c1ccc(F)c(Cl)c1` [Example 39, N-(3-Chloro-4-fluorophenyl)-4-methyl-N-((2-oxo-1,2-dihydroquinolin-4-yl)methyl)thiazole-5-carboxamide], the EC50 was > 5 µM. In the case of `Cn1ccnc1C(=O)N(Cc1cc(=O)[nH]c2c(F)cccc12)c1cccc(Cl)c1` [Example 47, N-(3-Chlorophenyl)-N-((8-fluoro-2-oxo-1,2-dihydroquinolin-4-yl)methyl)-1-methyl-1H-imidazole-2-carboxamide], the EC50 is reported as > 5 µM. In the case of `Cc1ccc(N(Cc2cc(=O)[nH]c3ccccc23)C(=O)c2ccco2)cc1` [Example 11, N-(4-Methylphenyl)-N-[(2-oxo-1,2-dihydroquinolin-4-yl)methyl]-2-furamide], the EC50 is reported as ≤ 5 µM. In the case of `COC(=O)C(=O)N(Cc1cc(=O)[nH]c2c(F)cccc12)c1cccc(Cl)c1` [Example 63, Methyl 2-((3-chlorophenyl)((8-fluoro-2-oxo-1,2-dihydroquinolin-4-yl)methyl)amino)-2-oxoacetate], the EC50 is reported as > 5 µM. `Cn1nccc1-c1nc2ccccc2n1Cc1cc(=O)[nH]c2c(F)c(F)ccc12` [Example 233, 7,8-Difluoro-4-((2-(1-methyl-1H-pyrazol-5-yl)-1H-benzo[d]imidazol-1-yl)methyl)quinolin-2(1H)-one] was tested, and the EC50 was ≤ 5 µM. With `Cc1c(-c2ccccc2)nc(C(C)C)n1Cc1cc(=O)[nH]c2c(F)c(F)ccc12` [Example 258, 7,8-Difluoro-4-((2-isopropyl-5-methyl-4-phenyl-1H-imidazol-1-yul)methyl)quinolin-2(1H)-one] the EC50 was > 5 µM. For `Cc1ncsc1C(=O)N(Cc1cc(=O)[nH]c2c(F)c(F)ccc12)C(C)C` [Example 185], the EC50 was > 5 µM. In the case of `Cc1cccc2c1nc(CC(C)C)n2Cc1cc(=O)[nH]c2c(F)c(F)ccc12` [Example 225, 7,8-Difluoro-4-((2-isobutyl-4-methyl-1H-benzo[d]imidazol-1-yl)methyl)quinolin-2(1H)-one], the EC50 is reported as ≤ 5 µM. `Cc1ncsc1-c1nc2ccccc2n1Cc1cc(=O)[nH]c2c(F)cccc12` [Example 79, 8-Fluoro-4-((2-(4-methylthiazol-5-yl)-1H-benzo[d]imidazol-1-yl)methyl)quinolin-2(1H)-one] was tested, and the EC50 was > 5 µM. For `CC(C)N(Cc1cc(=O)[nH]c2ccccc12)C(=O)c1ccco1` [Example 9, N-Isopropyl-N-[(2-oxo-1,2-dihydroquinolin-4-yl)methyl]-2-furamide], the EC50 was ≤ 5 µM. With `Cc1ncsc1C(=O)N(Cc1cc(=O)[nH]c2c(F)c(F)ccc12)c1ccccn1` [Example 264, N-((7,8-Difluoro-2-oxo-1,2-dihydroquinolin-4-yl)methyl)-4-methyl-N-(pyridin-2-yl)thiazole-5-carboxamide] the EC50 was > 5 µM. `Cc1ncsc1CN(C(=O)c1cc(=O)[nH]c2c(F)cccc12)c1ccc(F)c(Cl)c1` [Example 104, N-(3-Chloro-4-fluorophenyl)-8-fluoro-N-((4-methylthiazol-5-yl)methyl)-2-oxo-1,2-dihydroquinoline-4-carboxamide] was tested, and the EC50 was > 5 µM. In the case of `O=c1cc(Cn2c(N3CCOCC3)nc3ccccc32)c2ccc(F)c(F)c2[nH]1` [Example 200, 7,8-Difluoro-4-((2-morpholino-1H-benzo[d]imidazol-1-yl)methyl)quinolin-2(1H)-one], the EC50 is reported as > 5 µM. For `Cc1noc(C)c1C(=O)N(Cc1cc(=O)[nH]c2ccccc12)c1ccccc1` [Example 30, 3,5-Dimethyl-N-((2-oxo-1,2-dihydroquinolin-4-yl)methyl)-N-phenylisoxazole-4-carboxamide], the EC50 was > 5 µM. For `Cc1cccc(N(Cc2cc(=O)[nH]c3c(F)c(F)ccc23)C(=O)c2scnc2C)c1` [Example 94, N-(3-Methylphenyl)-N-((7,8-fluoro-2-oxo-1,2-dihydroquinolin-4-yl)methyl)-4-methylthiazole-5-carboxamide], the EC50 was ≤ 5 µM. With `Cc1nc(N2CCOCC2)sc1C(=O)N(Cc1cc(=O)[nH]c2ccccc12)c1ccccc1` [Example 101, 4-Methyl-2-morpholino-N-((2-oxo-1,2-dihydroquinolin-4-yl)methyl)-N-phenylthiazole-5-carboxamide] the EC50 was ≤ 5 µM. `CN(C)Cc1nc2ccccc2n1Cc1cc(=O)[nH]c2c(F)c(F)ccc12` [Example 198, 4-((2-((Dimethylamino)methyl)-1H-benzo[d]imidazol-1-yl)methyl)-7,8-difluoroquinolin-2(1H)-one] was tested, and the EC50 was > 5 µM. `CN(C)c1cccc(C(=O)N(Cc2cc(=O)[nH]c3c(F)cccc23)c2cccc(Cl)c2)c1` [Example 75, N-(3-Chlorophenyl)-3-(dimethylamino)-N-((8-fluoro-2-oxo-1,2-dihydroquinolin-4-yl)methyl)benzamide] was tested, and the EC50 was > 5 µM. In the case of `Cc1ncccc1C(=O)N(Cc1cc(=O)[nH]c2ccccc12)c1ccccc1` [Example 37, 2-Methyl-N-((2-oxo-1,2-dihydroquinolin-4-yl)methyl)-N-phenylnicotinamide], the EC50 is reported as ≤ 5 µM. In the case of `O=c1cc(Cn2c(-c3cccnc3)nc3ccccc32)c2ccccc2[nH]1` [Example 125, 4-((2-(Pyridin-3-yl)-1H-benzo[d]imidazol-1-yl)methyl)quinolin-2(1H)-one], the EC50 is reported as > 5 µM. For `Cc1ncsc1C(=O)N(Cc1cc(=O)[nH]c2c(F)ccc(F)c12)c1cccc(Cl)c1` [Example 52, N-(3-Chlorophenyl)-N-((5,8-difluoro-2-oxo-1,2-dihydroquinolin-4-yl)methyl)-4-methylthiazole-5-carboxamide], the EC50 was > 5 µM. In the case of `O=C(c1ccco1)N(Cc1cc(=O)[nH]c2c(F)cccc12)c1ccccc1` [Example 17, N-((8-Fluoro-2-oxo-1,2-dihydroquinolin-4-yl)methyl)-N-phenylfuran-2-carboxamide], the EC50 is reported as > 5 µM. For `O=c1cc(Cn2c(-c3cccc(F)c3)nc3ccccc32)c2ccc(F)c(F)c2[nH]1` [Example 196, 7,8-Difluoro-4-((2-(3-fluorophenyl)-1H-benzo[d]imidazol-1-yl)methyl)quinolin-2(1H)-one], the EC50 was ≤ 5 µM. With `O=c1cc(CN(CCc2ccco2)c2ccccc2)c2ccccc2[nH]1` [Example 23, 4-(((2-(Furan-2-yl)ethyl)(phenyl)amino)methyl)quinolin-2(1H)-one] the EC50 was ≤ 5 µM. In the case of `CC(C)(C)Cc1nc2ccccc2n1Cc1cc(=O)[nH]c2c(F)c(F)ccc12` [Example 237, 7,8-Difluoro-4-((2-neopentyl-1H-benzo[d]imidazol-1-yl)methyl)quinolin-2(1H)-one], the EC50 is reported as > 5 µM. For `Cc1ccc2c(CN(C(=O)c3ccco3)c3ccccc3)cc(=O)[nH]c2c1` [Example 20, N-((7-Methyl-2-oxo-1,2-dihydroquinolin-4-yl)methyl)-N-phenylfuran-2-carboxamide], the EC50 was ≤ 5 µM. In the case of `Cn1cnc(C(=O)N(Cc2cc(=O)[nH]c3c(F)cccc23)c2cccc(Cl)c2)c1` [Example 46, N-(3-Chlorophenyl)-N-((8-fluoro-2-oxo-1,2-dihydroquinolin-4-yl)methyl)-1-methyl-1H-imidazole-4-carboxamide], the EC50 is reported as > 5 µM. For `CC(C)Cc1nc2ccccc2n1Cc1cc(=O)[nH]c2c(F)c(F)ccc12` [Example 195, 7,8-Difluoro-4-((2-isobutyl-1H-benzo[d]imidazol-1-yl)methyl)quinolin-2(1H)-one], the EC50 was ≤ 5 µM. For `Cc1ncsc1C(=O)N(Cc1cc2cccc(F)c2[nH]c1=O)c1ccc(N2CCCCC2)cc1` [Example 174, N-((8-Fluoro-2-oxo-1,2-dihydroquinolin-3-yl)methyl)-4-methyl-N-(piperidin-1-yl)phenylthiazole-5-carboxamide], the EC50 was > 5 µM. In the case of `O=C(c1ccc2ncccc2c1)N(Cc1cc(=O)[nH]c2c(F)cccc12)c1cccc(Cl)c1` [Example 84, N-(3-Chlorophenyl)-N-((8-fluoro-2-oxo-1,2-dihydroquinolin-4-yl)methyl)quinoline-6-carboxamide], the EC50 is reported as > 5 µM. For `Cc1nc(N2CCN(C)CC2)sc1C(=O)N(Cc1cc(=O)[nH]c2ccccc12)c1ccccc1` [Example 102, 4-Methyl-2-(4-methylpiperazin-1-yl)-N-((2-oxo-1,2-dihydroquinolin-4-yl)methyl)-N-phenylthiazole-5-carboxamide], the EC50 was > 5 µM. For `O=C(c1ccco1)N(Cc1cc(=O)[nH]c2ccccc12)c1cccc(Cl)c1` [Example 14, N-(3-Chlorophenyl)-N-[(2-oxo-1,2-dihydroquinolin-4-yl)methyl]-2-furamide], the EC50 was > 5 µM. `Cc1ncsc1C(=O)N(Cc1cc(=O)[nH]c2c(F)c(F)ccc12)c1ccccc1F` [Example 90, N-(2-Fluorophenyl)-N-((7,8-fluoro-2-oxo-1,2-dihydroquinolin-4-yl)methyl)-4-methylthiazole-5-carboxamide] was tested, and the EC50 was ≤ 5 µM. With `O=C(c1cccnc1)N(Cc1cc(=O)[nH]c2ccccc12)c1ccccc1` [Example 33, N-((2-Oxo-1,2-dihydroquinolin-4-yl)methyl)-N-phenylnicotinamide] the EC50 was > 5 µM.
